Consider four molecules from patent publication US12569480B2, “Methods of treating fibrosis using compounds that promote glucose oxidation” (IMBRIA PHARMACEUTICALS, INC., priority 2019, dated 2026).

Assay [1] concerns TAC mice. Put plainly: TAC mice, 6-week minipump treatment: echocardiography. The format is in vivo. As to conditions: in words.
Assay [2] has as its system TAC mice. The assay can be described thus: TAC mice, 6-week minipump treatment: cardiac fibrosis, Masson's trichrome. The assay is classed as in vivo. As to conditions: 6 weeks, TMZ 6, NA 2.4, CV-8814 7.5, CV-8972 10 mg/kg/day, TAC control 10.7±1.
For assay [3], the system named is TAC mice. The assay can be described thus: TAC mice, 6-week minipump treatment: left ventricular pressure by Mikro-tip catheter. As to conditions: 6 weeks, CV-8972 10 mg/kg/day, TAC control −5697±417. The format is in vivo.
For assay [4], the system named is TAC mice. The assay can be described thus: TAC mice, 6-week minipump treatment: heart weight and heart weight/body weight. The format is in vivo. As to conditions: in words, 6 weeks, NA 2.4 mg/kg/day.
Assay [5] concerns isolated hearts after ischemia-reperfusion. The assay can be described thus: Ischemia-reperfusion (IR), isolated hearts (Langendorff): cardiac function (left ventricular pressure). More on the design: species or system mice. As to conditions: in words; TMZ 20 μM; TNF 2 μM each; TNS 20 μM each.
Method: FIG. 38 is a schematic of the ischemia-reperfusion (IR) method used to analyze the effects of selected compositions on coronary flow, cardiac function, and infarct size. […] At 20 minutes, ischemia was induced, and coronary flow was analyzed. At 50 minutes, reperfusion was initiated to restore blood flow. At 170 minutes, coronary flow and cardiac function was analyzed, and then the hearts were preserved, sectioned, and infarct size was measured by triphenyltetrazolium chloride (TTC) staining.
Where [6] appears, read: to the end of the study (6 weeks).

On to `COc1ccc(CN2CCN(CCO)CC2)c(OC)c1OC` [CV-8814, 2-(4-(2,3,4-trimethoxybenzyl)piperazin-1-yl)ethan-1-ol], for which the EF entry is “significantly increased” with TAC mice [1] (3-weeks after TAC) and “protective effect was sustained” in the assay on TAC mice [1] (setting [6]). Besides, the “cardiac fibrosis (fibrotic area to whole heart tissue area)” value with TAC mice [2] worked out at 6.6±0.6%.

`COc1ccc(CN2CCN(CCOC(=O)c3cccnc3)CC2)c(OC)c1OC` [CV-8972, 2-(4-(2,3,4-trimethoxybenzyl)piperazin-1-yl)ethyl nicotinate]: the “−dp/dtm” value in the assay on TAC mice [3] is on record as −4126±339 mm Hg/sec. For the same molecule, the EF entry in the assay with TAC mice [1] (3-weeks after TAC) was “significantly increased”; in the assay with TAC mice [1] (setting [6]), “protective effect was sustained”.

`O=C(O)c1cccnc1` [NA, nicotinic acid, reference compound]: in the assay on TAC mice [1] (TAC mice, NA 2.4 mg/kg/day), the IVSd result is given as “decreased IVSd” and the LV mass result was “no effect on LV mass”. For the same molecule, the “effect on cardiac remodeling” value with TAC mice [4] is “no significant effect on cardiac remodeling”.

On to `COc1ccc(CN2CCNCC2)c(OC)c1OC` [TMZ, trimetazidine], for which the “cardiac function (LVDP) after IR” value in assay [5] is “prevented a decline in cardiac function”.
